This note sets out measurements from patent US20250197372A1 (priority 2020, published 2025).

What is called IC50 is the point on the concentration scale where inhibition reaches its midpoint.

Molecules are shown by their SMILES. Where two headings read alike, the source gives them in different places.

Holding throughout (type): biochemical
The target in test [1] is T1, recombinant alpha-glucosidase I (human full-length glucosidase I, Glu 1) (Homo sapiens, UniProt Q13724).
T1 construct: 6-His (C); made in house; host or cells: HEK-293T cells transduced with BacMam virus (virus raised in Sf9)
T1 sequence (Q13724 1-837): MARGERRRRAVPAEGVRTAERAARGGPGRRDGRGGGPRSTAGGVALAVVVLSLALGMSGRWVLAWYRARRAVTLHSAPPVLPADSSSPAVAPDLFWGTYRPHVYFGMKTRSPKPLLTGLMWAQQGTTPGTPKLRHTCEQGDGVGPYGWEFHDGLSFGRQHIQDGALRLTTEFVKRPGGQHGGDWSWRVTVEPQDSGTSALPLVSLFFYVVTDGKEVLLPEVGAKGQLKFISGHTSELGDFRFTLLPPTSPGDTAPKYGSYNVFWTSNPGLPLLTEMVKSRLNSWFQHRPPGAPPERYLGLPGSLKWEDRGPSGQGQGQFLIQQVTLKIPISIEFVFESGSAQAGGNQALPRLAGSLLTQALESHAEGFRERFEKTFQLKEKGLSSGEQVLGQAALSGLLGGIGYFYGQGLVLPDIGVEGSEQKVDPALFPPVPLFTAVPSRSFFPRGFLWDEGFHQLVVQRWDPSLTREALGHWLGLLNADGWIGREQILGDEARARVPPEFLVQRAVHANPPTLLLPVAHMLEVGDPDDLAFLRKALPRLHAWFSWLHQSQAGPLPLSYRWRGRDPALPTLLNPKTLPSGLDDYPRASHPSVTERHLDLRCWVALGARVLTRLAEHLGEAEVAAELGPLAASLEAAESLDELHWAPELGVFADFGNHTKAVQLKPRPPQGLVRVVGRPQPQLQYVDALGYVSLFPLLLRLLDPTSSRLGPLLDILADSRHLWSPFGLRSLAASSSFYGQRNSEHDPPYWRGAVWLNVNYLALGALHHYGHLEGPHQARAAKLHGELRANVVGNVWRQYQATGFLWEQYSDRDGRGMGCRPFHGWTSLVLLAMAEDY
Put plainly: Alpha-glucosidase I assay (Amplex Red glucose detection, synthetic trisaccharide substrate). In short, it runs like this:
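Human full-length glucosidase I, His-tagged, […] and Ni-purified. Enzyme preincubated with compound dilutions 60 min at 37° C, then synthetic trisaccharide substrate 90 min at 37° C; stopped with 1.5M Tris pH 8.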

The target in test [2] is recombinant human GAA (acid alpha-glucosidase) (Homo sapiens, UniProt P10253). Put plainly: Acid alpha-glucosidase (GAA) assay (4-methylumbelliferyl-alpha-D-pyranoside substrate, fluorescence). In short, it runs like this:
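Recombinant human enzyme preincubated 60 min at 37 °C with compound dilutions, then 4-methylumbelliferyl-alpha-D-pyranoside substrate added for 20 min at 37 °C. Stopped with glycine/NaOH pH 10; methylumbelliferone fluorescence (ex 365, em 440 nm) versus untreated enzyme; IC50 by 4-PL fit.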

The target of test [3] is rat sucrase (partially purified alpha-glucosidase from intestinal rat powder) (Rattus norvegicus, UniProt P23739). Briefly: Intestinal alpha-glucosidase assay, sucrose substrate (Glucose GO Kit). In short, it runs like this: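 Enzyme from intestinal rat powder, partially purified, is exposed to compound for 60 min at 37 °C. Disaccharide substrate (maltose or sucrose respectively) then reacts 30 min at 37 °C. Heat-stopped samples are assayed for glucose, and percent inhibition versus concentration gives IC50 via 4-PL.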

Setting [4] is: Glucosidase 1, read-out: Glu 1 IC50.

rat sucrase (partially purified alpha-glucosidase from intestinal rat powder), sequence (P23739 whole entry): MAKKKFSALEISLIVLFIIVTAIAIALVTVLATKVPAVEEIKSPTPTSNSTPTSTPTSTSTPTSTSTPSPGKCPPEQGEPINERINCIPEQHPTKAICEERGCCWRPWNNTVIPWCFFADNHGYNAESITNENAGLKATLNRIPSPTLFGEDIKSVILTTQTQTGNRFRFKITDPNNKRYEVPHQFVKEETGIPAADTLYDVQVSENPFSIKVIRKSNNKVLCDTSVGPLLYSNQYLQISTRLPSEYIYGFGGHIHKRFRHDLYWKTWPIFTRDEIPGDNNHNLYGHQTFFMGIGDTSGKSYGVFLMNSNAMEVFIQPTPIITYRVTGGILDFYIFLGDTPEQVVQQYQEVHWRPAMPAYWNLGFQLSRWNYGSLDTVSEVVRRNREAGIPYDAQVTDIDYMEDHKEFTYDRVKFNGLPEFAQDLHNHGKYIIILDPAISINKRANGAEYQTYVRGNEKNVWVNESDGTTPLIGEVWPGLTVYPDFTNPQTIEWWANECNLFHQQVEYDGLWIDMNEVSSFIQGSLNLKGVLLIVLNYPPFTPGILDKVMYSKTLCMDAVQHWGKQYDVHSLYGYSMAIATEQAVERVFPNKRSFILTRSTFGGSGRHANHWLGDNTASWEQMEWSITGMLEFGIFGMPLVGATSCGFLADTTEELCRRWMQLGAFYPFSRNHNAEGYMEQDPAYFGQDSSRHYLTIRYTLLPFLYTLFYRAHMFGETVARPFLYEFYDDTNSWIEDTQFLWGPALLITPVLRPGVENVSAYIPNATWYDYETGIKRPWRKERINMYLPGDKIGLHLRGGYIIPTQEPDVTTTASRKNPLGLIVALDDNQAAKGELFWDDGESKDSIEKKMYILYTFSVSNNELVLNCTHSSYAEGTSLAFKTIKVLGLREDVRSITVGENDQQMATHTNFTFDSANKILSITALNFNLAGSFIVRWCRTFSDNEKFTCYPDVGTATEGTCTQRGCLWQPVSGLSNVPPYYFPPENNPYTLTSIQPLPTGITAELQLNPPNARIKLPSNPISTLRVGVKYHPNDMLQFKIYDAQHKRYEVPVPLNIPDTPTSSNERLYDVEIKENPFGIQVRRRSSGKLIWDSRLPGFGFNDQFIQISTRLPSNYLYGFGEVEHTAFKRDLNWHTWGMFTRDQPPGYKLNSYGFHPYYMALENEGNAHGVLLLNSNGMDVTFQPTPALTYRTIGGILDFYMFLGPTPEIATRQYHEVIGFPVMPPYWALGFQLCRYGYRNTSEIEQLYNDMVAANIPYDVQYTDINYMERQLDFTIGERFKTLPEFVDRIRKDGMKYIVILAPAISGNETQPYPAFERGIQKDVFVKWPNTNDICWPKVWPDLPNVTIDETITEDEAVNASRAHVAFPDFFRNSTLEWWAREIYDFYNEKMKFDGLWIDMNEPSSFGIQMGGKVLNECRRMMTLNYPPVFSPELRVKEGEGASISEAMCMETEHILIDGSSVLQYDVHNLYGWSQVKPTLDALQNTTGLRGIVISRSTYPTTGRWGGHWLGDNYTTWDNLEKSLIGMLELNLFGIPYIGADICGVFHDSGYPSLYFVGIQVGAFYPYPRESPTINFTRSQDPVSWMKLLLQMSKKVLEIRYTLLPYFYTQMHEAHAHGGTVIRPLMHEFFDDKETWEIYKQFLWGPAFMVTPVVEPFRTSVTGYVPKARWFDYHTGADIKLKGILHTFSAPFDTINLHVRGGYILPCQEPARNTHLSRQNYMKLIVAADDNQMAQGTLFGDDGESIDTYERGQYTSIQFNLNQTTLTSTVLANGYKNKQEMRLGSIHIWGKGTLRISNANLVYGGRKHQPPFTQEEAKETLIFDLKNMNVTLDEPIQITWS

For `Cc1cc(-c2ccco2)ccc1NCc1ccc(CN2C[C@H](O)[C@@H](O)[C@H](O)[C@H]2CO)cc1` [Compound 1324, (2R,3R,4R,5S)-1-{[4-({[4-(furan-2-yl)-2-methylphenyl]amino}methyl)phenyl]methyl}-2-(hydroxymethyl)piperidine-3,4,5-triol], the IC50 was under 1 nM in test [1], 80 nM in test [2] and under 1 nM in test [3].

`[N-]=[N+]=Nc1ccc(NCc2ccc(-c3ccc(CN4C[C@H](O)[C@@H](O)[C@H](O)[C@H]4CO)cc3)cc2)c([N+](=O)[O-])c1` [Compound 1166, (2R,3R,4R,5S)-1-[(4′-{[(4-azido-2-nitrophenyl)amino]methyl}-[1,1′-biphenyl]-4-yl)methyl]-2-(hydroxymethyl)piperidine-3,4,5-triol]: the figures for the IC50 in test [1] (setting [4]), in test [2] and in test [3] were 184 nM, 1380 nM and 156 nM, respectively.

In the case of `[N-]=[N+]=Nc1ccc(NCCc2ccc(CCN3C[C@H](O)[C@@H](O)[C@H](O)[C@H]3CO)s2)c([N+](=O)[O-])c1` [Compound 1186, (2R,3R,4R,5S)-1-[2-(5-{2-[(4-azido-2-nitrophenyl)amino]ethyl}hiophen-2-yl)ethyl]-2-(hydroxymethyl)piperidine-3,4,5-triol], the IC50 in test [1] (setting [4]) was 3 nM; in test [2] it was 263 nM; in test [3] it was 175 nM.

As for `[N-]=[N+]=Nc1ccc(NCc2cc(CCN3C[C@H](O)[C@@H](O)[C@H](O)[C@H]3CO)cs2)c([N+](=O)[O-])c1` [Compound 1174, (2R,3R,4R,5S)-1-[2-(5-{[(4-azido-2-nitrophenyl)amino]methyl}thiophen-3-yl)ethyl]-2-(hydroxymethyl)piperidine-3,4,5-triol], the values for the IC50 in test [1] (setting [4]), in test [2] and in test [3] were 531 nM, 230 nM and 1 nM, respectively.

On to `COc1cc(CC2CCOC2)cc(NCCCCCCN2C[C@H](O)[C@@H](O)[C@H](O)[C@H]2CO)c1` (stereo partly drawn) [Compound 1141, (2R,3R,4R,5S)-2-(hydroxymethyl)-1-[6-({3-methoxy-5-[(oxolan-3-yl)methyl]phenyl}amino)hexyl]piperidine-3,4,5-triol], for which the IC50 in test [1] (setting [4]) was found to be 1160 nM; in test [2], 188 nM; in test [3] it was 696 nM.

With `COc1cc(-c2cnccn2)ccc1NCCCCCCN1C[C@H](O)[C@@H](O)[C@H](O)[C@H]1CO` [Compound 1199, (2R,3R,4R,5S)-2-(hydroxymethyl)-1-(6-{[2-methoxy-4-(pyrazin-2-yl)phenyl]amino}hexyl)piperidine-3,4,5-triol], the IC50 amounted to 77 nM in test [1] (setting [4]), 43 nM in test [2] and 16 nM in test [3].

As for `CS(=O)(=O)Nc1ccc(NCCCCCCN2C[C@H](O)[C@@H](O)[C@H](O)[C@H]2CO)c([N+](=O)[O-])c1` [Compound 1300, N-[3-nitro-4-({6-[(2R,3R,4R,5S)-3,4,5-trihydroxy-2-(hydroxy-methyl)piperidin-1-yl]hexyl}amino)phenyl]methanesulfonamide], the IC50 was 157 nM in test [1], 20 nM in test [2] and 52 nM in test [3].

On to `COc1cc(NCCCCCCN2C[C@H](O)[C@@H](O)[C@H](O)[C@H]2CO)cc(C2CCCO2)c1` (stereo partly drawn) [Compound 1146, (2R,3R,4R,5S)-2-(hydroxymethyl)-1-(6-{[3-methoxy-5-(oxolan-2-yl)phenyl]amino}hexyl)piperidine-3,4,5-triol], for which the values for the IC50 in test [1] (setting [4]), in test [2] and in test [3] were 511 nM, 68 nM and 92 nM, respectively.

Take `COc1cc(NCCCCCCN2C[C@H](O)[C@@H](O)[C@H](O)[C@H]2CO)cc(-c2cnccn2)c1` [Compound 1197, (2R,3R,4R,5S)-2-(hydroxymethyl)-1-(6-{[3-methoxy-5-(pyrazin-2-yl)phenyl]amino}hexyl)piperidine-3,4,5-triol]: the IC50 in test [1] (setting [4]) was determined as 140 nM; in test [2] it was 37 nM; in test [3], 177 nM.

As for `OC[C@@H]1[C@@H](O)[C@H](O)[C@@H](O)CN1CCCCCCNc1ccc(-c2cnccn2)cc1Cl` [Compound 1198, (2R,3R,4R,5S)-1-(6-{[2-chloro-4-(pyrazin-2-yl)phenyl]amino}hexyl)-2-(hydroxymethyl)piperidine-3,4,5-triol], the IC50 in test [1] (setting [4]) worked out at 12 nM; in test [2], 47 nM; in test [3], 1 nM.

As to `[N-]=[N+]=Nc1ccc(NCc2cccc(CN3C[C@H](O)[C@@H](O)[C@H](O)[C@H]3CO)c2)c([N+](=O)[O-])c1` [Compound 1169, (2R,3R,4R,5S)-1-[(3-{[(4-azido-2-nitrophenyl)amino]methyl}phenyl)methyl]-2-(hydroxymethyl)piperidine-3,4,5-triol], the IC50 is 68 nM in test [1] (setting [4]), 420 nM in test [2] and under 1 nM in test [3].

With `OC[C@@H]1[C@@H](O)[C@H](O)[C@@H](O)CN1CCCCCCNc1cc(Cl)cc(CN2CCCO2)c1` [Compound 1183, (2R,3R,4R,5S)-1-[6-({3-chloro-5-[(1,2-oxazolidin-2-yl)methyl]phenyl}amino)hexyl]-2-(hydroxymethyl)piperidine-3,4,5-triol], the IC50 in test [1] (setting [4]) was 154 nM; in test [2], 90 nM; in test [3], 94 nM.

For `OC[C@@H]1[C@@H](O)[C@H](O)[C@@H](O)CN1CCCCCCNc1cc(Cl)cc(-c2cnccn2)c1` [Compound 1196, (2R,3R,4R,5S)-1-(6-{[3-chloro-5-(pyrazin-2-yl)phenyl]amino}hexyl)-2-(hydroxymethyl)piperidine-3,4,5-triol], the IC50 amounted to 105 nM in test [1] (setting [4]), 10 nM in test [2] and 175 nM in test [3].

Consider `O=[N+]([O-])c1cc(CCO)ccc1NCCCCCCN1C[C@H](O)[C@@H](O)[C@H](O)[C@H]1CO` [Compound 1292, (2R,3R,4R,5S)-1-(6-{[4-(2-hydroxyethyl)-2-nitrophenyl]amino}hexyl)-2-(hydroxymethyl)piperidine-3,4,5-triol], for which the IC50 amounted to 157 nM in test [1], 28 nM in test [2] and 40 nM in test [3].

Take `[N-]=[N+]=Nc1ccc(NCCc2cc(Br)cc(CCN3C[C@H](O)[C@@H](O)[C@H](O)[C@H]3CO)c2)c([N+](=O)[O-])c1` [Compound 1140, (2R,3R,4R,5S)-1-[2-(3-{2-[(4-azido-2-nitrophenyl)amino]ethyl}-5-bromophenyl)ethyl]-2-(hydroxymethyl)piperidine-3,4,5-triol]: the figures for the concentration for half-maximal inhibition (IC50) in test [1] (setting [4]), in test [2] and in test [3] were 153 nM, 2090 nM and 4140 nM, respectively.

As for `Cc1cc(NCc2cccc(CN3C[C@H](O)[C@@H](O)[C@H](O)[C@H]3CO)c2)cc(-c2ncccn2)c1` [Compound 1035, (2R,3R,4R,5S)-2-(hydroxymethyl)-1-{[3-({[3-methyl-5-(pyrimidin-2-yl)phenyl]amino}methyl)phenyl]methyl}piperidine-3,4,5-triol], the IC50 in test [1] came to 44 nM; in test [2], 5100 nM; in test [3], 51 nM.

Consider `COc1cc(NCCCCCCN2C[C@H](O)[C@@H](O)[C@H](O)[C@H]2CO)cc(C2=CCCCC2)c1` [Compound 1149, (2R,3R,4R,5S)-1-(6-{[3-(cyclohex-1-en-1-yl)-5-methoxy-phenyl]amino}hexyl)-2-(hydroxymethyl)piperidine-3,4,5-triol], for which the results for the IC50 in test [1] (setting [4]), in test [2] and in test [3] were 264 nM, 66 nM and under 1 nM, respectively.

For the compound `N#Cc1cc(NCc2cccc(CN3C[C@H](O)[C@@H](O)[C@H](O)[C@H]3CO)c2)cc(C2=COCCO2)c1` [Compound 1044, 3-(5,6-dihydro-1,4-dioxin-2-yl)-5-{[(3-{[(2R,3R,4R,5S)-3,4,5-trihydroxy-2-(hydroxymethyl)piperidin-1-yl]methyl}phenyl)methyl]amino}benzonitrile], the values for the half-inhibitory concentration (IC50) in test [1], in test [2] and in test [3] were 3 nM, 1420 nM and under 1 nM, respectively.

In the case of `CS(=O)(=O)c1cc(Br)cc(NCc2cccc(CN3C[C@H](O)[C@@H](O)[C@H](O)[C@H]3CO)c2)c1` [Compound 1022, (2R,3R,4R,5S)-1-[(3-{[(3-bromo-5-methanesulfonylphenyl)amino]methyl}phenyl)methyl]-2-(hydroxymethyl)piperidine-3,4,5-triol], the IC50 in test [1] was 19 nM; in test [2], 803 nM; in test [3] it was 26 nM.
